According to patent US20210349108A1, “IMMUNOASSAY FOR MEASURING C-PEPTIDE” (Roche Diabetes Care GmbH, priority 2018, published 2021):
Values belong to the substance of their own block, whether it stands above or below them.

What was measured:
[1] = test system: anti-C-peptide antibody PEP001; assay: QCM displacement immunoassay, ligand immobilized on Au-surface, antibody PEP001; type: binding; conditions: for QCM frequency change on addition of sample containing WT-C-peptide (displacement of the ligand, release of antibody-C-peptide-complex): streptavidin/ligand/PEP001 assembly on Au-surface
Source text: An Au-substrate is covered with a self-assembled monolayer (SAM). This self-assembled monolayer protects the surface from unspecific adsorption of peptides or proteins. Part of the SAM molecules is coupled with biotin, which is exposed on the surface. To this surface the biotin binding protein streptavidin is applied and bound by the biotin moieties. Since streptavidin has a plurality of binding sides for biotin, a ligand labeled with biotin can be bound to the streptavidin. Finally, anti-C-peptide antibody PEP001 is added, which binds to the ligand forming an immobilized antibody-ligand-complex, which is schematically depicted in FIG. 2. The stepwise build-up of an immobilized antibody-ligand-complex on the Au-surface can be monitored using a Quartz Crystal Microbalance (QCM). […] Referring to FIG. 3, attachment of streptavidin and Mut6-C-peptide results in a frequency shift of about −20 Hz. The binding of antibody PEP001 to the ligand Mut6-C-peptide results in a frequency shift of about >−50 Hz.
Addition of a sample containing C-peptide results in displacement of the ligand by wild type C-peptide and release of a C-peptide-antibody-complex as schematically shown in FIG. 2.
A quantitative determination of the amount of C-peptide within a sample can be achieved by calibrating the assay using solutions having known C-peptide concentrations. The amount of frequency shift observed for a sample indicates the quantitative amount of C-peptide being present within that sample.
An immunoassay as described in Example 1 was provided except that Mut3-C-peptide, Mut2-C-peptide or Mut5-C-peptide were used as ligand.
As described in Example 1, a SAM/biotin/streptavidin/biotin-ligand/antibody-complex is immobilized on an Au-surface. In this Example the ligand was C-peptide mutant B10-25_Mut3, the antibody was PEP001.
Immobilization of a ligand to a surface can also be performed using a linker (instead of a self-assembling monolayer). A suitable linker is for example a cysteine linker. In this configuration immobilization of an antibody via an antibody-ligand-complex to the surface can be detected by measuring impedance. A ligand having the sequence N-[…]-C(SEQ ID NO:7) was directly immobilized on an Au-surface. Additionally, 6-ferrocenyl-1-hexanethiol was bound to the Au surface for enhanced impedance measurement. Unspecific protein binding to the surface was avoided by incubation with a polyethylene glycol (ML-PEG) and bovine serum albumin (BSA).

[2] = test system: anti-C-peptide antibody CPT-3-F11; assay: QCM displacement immunoassay, ligand immobilized on Au-surface, antibody CPT-3-F11; type: binding

effect of addition of WT-C-peptide on bound antibody ([1]; ligand directly immobilized on Au-surface via cysteine linker, QCM): release of the bound antibody
Substance: N-CGSGSGSGS-VELGGGPGAGSLAPLA-C (CGSGSGSGSVELGGGPGAGSLAPLA; variant C-peptide Mut6-Cys) [SEQ ID NO:7, AA10-25; Q(22) to A and including a cysteine linker]
QCM frequency change on addition of PEP001 antibody ([1]; ligand directly immobilized on Au-surface via cysteine linker): considerable negative shift of the frequency

QCM frequency change on addition of sample containing WT-C-peptide (displacement of the ligand) ([2]; antibody CPT-3-F11): considerable frequency increase | frequency shift on addition of anti-C-peptide antibody CPT-3-F11 ([2]; streptavidin/ligand assembly on Au-surface): ~−30 Hz
Substance: N-GQVECGGGPG-C (variant C-peptide Mut18) [Mut18-C-peptide, C-peptide variant AA8-17; L(12)to C]

QCM frequency change on addition of sample containing WT-C-peptide (displacement of the ligand, release of antibody-C-peptide-complex) ([1]; QCM): considerable frequency increase | QCM frequency change on adding WT-C-peptide (release of antibody-WT-C-peptide-complex) ([1]; continuous assay, 500 ng/ml WT-C-peptide, antibody PEP001): positive frequency shift
Substance: N-VELGGGPGAGSIQPLA-C (variant C-peptide Mut3) [Mut3-C-peptide, C-peptide variant AA10-25; L(21)to I]

frequency shift on binding of antibody PEP001 to the ligand ([1]; QCM, biotin-labeled ligand on SAM/biotin/streptavidin Au-surface, negative shift = mass increase): > −50 Hz | QCM frequency change on addition of sample containing WT-C-peptide (displacement of the ligand, release of antibody-C-peptide-complex) ([1]; QCM): observable positive frequency shift
Substance: N-VELGGGPGAGSLAPLA-C (variant C-peptide Mut6) [Mut6-C-peptide, C-peptide variant AA10-25; Q(22)to A]
